Data from US5478807A, “Use of relaxin in the treatment of bradycardia” (Genentech, Inc., priority 1992, dated 1995).
“And” between values parts separate entries of the source, which are not always exact repeats. Identical values can stand only once.

Assays:
[1] = tested on: primary human uterine cell line; experiment: cAMP bioassay in primary human uterine cell line; assay type: cell-based
Protocol: The phosphorylated relaxin was assayed for its ability to increase cAMP levels in a primary human uterine cell line. The procedure of Kramer et al. [Kramer et al., In Vitro Cell, Dev, Biol. 26, 647-656 (1990)] was modified and carried out as follows: human uterine cells at passage 15-22 were grown to confluency in Ham's F12/DMEM (1/1, v/v) medium supplemented with 10% heat-inactivated newborn calf serum, 100 unites/ml penicillin, 100 μg/ml streptomycin, 2 mM glutamine and 24 mMHEPES, pH 7.4. Cells were plated into 6-well culture plates at 10^5 cells/well and incubated overnight at 37° C. and 5% CO2 in air. The cells (at 60-80% confluency) were then washed twice with F12/DMEM-24 mMHEPES, pH 7.4 (buffer B) at room temp. […] Aliquots of the extracts were then neutralized with 0.1 N NaOH and cAMP levels were measured in a radioimmunoassay. The assay was based on the competition between cAMP and a fixed quantity of ^125 I-labeled cAMP (Du Pont) for binding to a goat anti-cAMP antibody (Cambridge). […] The radioactivity in the pellet was measured in a gamma counter, and the amount of cAMP in the samples was determined by comparison with a standard cAMP curve. A relaxin standard curve was constructed in which the cAMP concentrations (pmol/ml) determined in the radioimmunoassay were plotted as a function of stimulating relaxin concentrations (ng/ml). […]

[2] = tested on: left atrium; experiment: Left atrial contraction, isolated electrically paced left atrium; set-up: species or system rat; conditions: for left atrium contractile force % Δ, mean (X): mean of four left atria; for left atrium contractile force % Δ: single experiment
Protocol: Krebs-Henseleit solution was prepared with the following composition (in millimoles): NaCl 118; KCl 4.7; MgSO4 1.64; NaHCO3 24.88; KH2 PO4 1.18; d-glucose 11.1; bubbled with 95% O2 /5% CO2; CaCl2 2.52.
Human (H2) relaxin (hRLx-2, 1.5 mg/ml; Genentech) was diluted fresh daily to desired concentrations (500:1; 5000:1; 50000:1) in Krebs-Henseleit solution.
Male Wistar rats (Charles River) weighing 475-525 g each, were anesthetized with sodium pentobarbital (60 mg/kg). After thoracotomy, the heart was removed rapidly and placed in cold (4° C.) Krebs-Henseleit solution until spontaneous contractions ceased. The right and left atria were excised.
Tissue was bathed in an organ chamber holding 42 ml Krebs-Henseleit solution that was aerated with 95% O2 /5% CO2 and heated to 37° C. with a temperature controlled water jacket. Tissue contractions were measured with force-displacement transducers (Grass FT 0.3) and recorded on chart paper (Grass moled 79 polygraph). The rates of contractions were determined with a cardiotachometer (Grass). Electrical stimulation of tissue was induced through bipolar clip electrodes connected to a stimulator through a stimulus isolation unit (Grass model S48).
A stainless steel clip was attached to the distal end of the left atrium and the proximal end was attached to a bipolar electrode. The electrode assembly was secured within the organ chamber and the upper clip was attached to the force-displacement transducer. The position of the transducer was adjusted to yield 1.0 g resting tension. The left atrium was stimulated at 3Hz at 1.5×threshold. The duration (3 msec) and intensity of the pulses (1.5-3.0 Volts) were kept constant throughout an experiment.
In all experiments the atria were allowed to stabilize for 30 minutes prior to addition of drugs. […] Thus, cumulative dose-response curves were generated. At 10 minute intervals, relaxin was added to each organ chamber to obtain bath concentrations of 100 pg/ml, 300 pg/ml, 1 ng/ml, 3 ng/ml, 10 ng/ml and 30 ng/ml.
Measurement of contraction rate and force of contraction following each dose of relaxin were obtained after responses reached a steady state. Rate was determined directly from the output of the cardiotachometer. Force of contraction was measured as the magnitude of the contractile twitches. In order to adjust for variations between tissues, data are expressed as percent changes from pre-drug values, as means±standard errors. Measurements of rate were obtained in seven right atria; measurement of contractile force were obtained in four left atria.

[3] = tested on: rat isolated heart; experiment: Chronotropy and inotropy in Langendorff rat isolated heart; conditions: for maximum beating rate: 83 pMol
Protocol: Male Sprague-Dawley rats weighing 300-350 g (Charles River, Portage, Ind., USA) were anesthetized with 60 mg/kg pentobarbital sodium (Fort Dodge Laboratories, Inc., Fort Dodge, Iowa, USA) intraperitoneally. Following thoracotomy, the hearts were removed and placed into 4° C. […] Any associated lung and thymic tissue were trimmed off and the ascending aorta cannulated. The heart was then perfused at 10 ml/min with Krebs-Henseleit solution at 37° C. The perfusion pressure was constantly monitored. A small incision was made in the left atrium and a water-filled balloon (Hugo Sachs Electronik, March-Hugstetten, Germany) connected to a pressure transducer (Gould Electronics, Valley View, Ohio, USA) was placed into the left ventricle for the measurement of left ventricular developed pressure (LVDP). From this pressure, recording heart rate was electronically derived on a Grass polygraph (Quincy, Mass., USA).
In six experiments, after a 15-20 minutes stabilization period, the atria were removed. The heart rate was then allowed to stabilize at its new rate before the administration of relaxin. In three experiments, the atria were left intact.
Relaxin was administered as 50 μl bolus injections into the perfusion fluid immediately prior to entering the heart. Cumulative dose-response curves were constructed using human recombinant H2 relaxin (Genentech, Inc. South San Francisco, Calif., USA). […] Serial dilutions of both drugs were made using 0.9% (w/v) saline solution.
Statistical significance was determined by a two-tailed Student's unpaired t-test and P<0.005 was taken as significant.

## relaxin
[1]
  biological activity: biologically active
[2]; 100 pg
  left atrium contractile force % Δ, mean (X): -6%
[2]; 100 pg, change from pre-drug value
  left atrium contractile force % Δ: -12% and -5% and -4% and -3%
[2]; 300 pg
  left atrium contractile force % Δ, mean (X): -9.5%
[2]; 1 ng
  left atrium contractile force % Δ, mean (X): 1.0%
[2]; 3 ng
  left atrium contractile force % Δ, mean (X): 14.3%
[2]; 10 ng
  left atrium contractile force % Δ, mean (X): 30%
  left atrium contractile force % Δ: 22% and 38% and 40% and 20%
[2]; 30 ng
  left atrium contractile force % Δ, mean (X): 37.8%
[2]; at 300 pg/ml
  peak decrease in contractile force: 10%
[2]; at 30 ng/ml
  peak increase in contractile force: 38%
[2]; left atrium
  point of half maximal increase in contractile force: about 4.8 ng/ml
[3]
  transient increases in coronary perfusion pressure: not seen
[3]; atria removed (LVDP 143±9 mmHg), 0.83 pMol
  effect on LVDP: significantly reduced the LVDP to control levels
[3]; atria removed, basal 139±15 bpm
  maximum beating rate: 268±7 bpm
[3]; intact heart preparations, basal 270±7 bpm
  maximum beating rate: 412±18 bpm
[3]; isolated heart preparations
  inotropic effect: no positive inotropic effects
[3]; relaxin: single bolus administration of 830 pMol
  duration of chronotropic effect: up to two hours
